How the values were obtained:
[1] = molar enthalpy of vaporization or sublimation; settings: 333.15 K, Crystal
[2] = Molar enthalpy of transition or fusion; settings: Crystal; DSC
[3] = Crystal; DTA
[4] = molar heat capacity at constant pressure; settings: 101.33 kPa, Small sample (50 mg) DSC

[CH]1C=CC=C1.[CH]1C=CC=C1.[Fe] [ferrocene]
[1]
Settings | molar enthalpy [kcal/mol]
DSC | 17.3
Static calorimetry | 17.5

Settings | Molar enthalpy of transition or fusion [kcal/mol] | Normal melting temperature [°C]
[2] | 4.25 | –
[3] | – | 175

molar heat capacity at constant pressure [J/K/mol], [4]
Settings | Crystal | Gas
293 K | 186.22 | 163.5
294 K | 186.78 | 164.13
295 K | 187.52 | 164.76
296 K | 188.08 | 165.39
297 K | 189.01 | 166.02
298 K | 189.75 | 166.65
298.15 K | 189.75 | –
299 K | 190.5 | 167.27
300 K | 191.24 | 167.9
301 K | 191.8 | 168.53
302 K | 192.36 | 169.15
303 K | 193.1 | 169.78
304 K | 193.84 | 170.4
305 K | 194.4 | 171.03
306 K | 195.15 | 171.65
307 K | 195.7 | 172.27
308 K | 196.45 | 172.9
309 K | 197.19 | 173.52
310 K | 197.94 | 174.14
311 K | 198.31 | 174.76
312 K | 199.24 | 175.38
313 K | 199.8 | 176
314 K | 200.54 | 176.61
315 K | 201.29 | 177.23
316 K | 202.03 | 177.85
317 K | 202.77 | 178.46
318 K | 203.33 | 179.07
319 K | 204.08 | 179.69
320 K | 204.45 | 180.3
321 K | 205.38 | 180.91
322 K | 205.94 | 181.52
323 K | 207.05 | 182.13
324 K | 207.61 | 182.74
325 K | 208.35 | 183.35
326 K | 209.1 | 183.96
327 K | 209.66 | 184.56
328 K | 210.22 | 185.17
329 K | 210.77 | 185.77
330 K | 211.33 | 186.37
331 K | 212.26 | 186.98
332 K | 213.01 | 187.58
333 K | 213.75 | 188.18
334 K | 214.49 | 188.78
335 K | 215.24 | 189.37
336 K | 215.8 | 189.97
337 K | 216.54 | 190.57
338 K | 217.28 | 191.16
339 K | 218.21 | 191.76
340 K | 218.77 | 192.35
341 K | 219.7 | 192.94
342 K | 220.26 | 193.53
343 K | 221.01 | 194.12
344 K | 221.56 | 194.71
345 K | 222.49 | 195.3
346 K | 223.24 | 195.88
347 K | 223.8 | 196.47
348 K | 223.98 | 197.05
349 K | 225.1 | 197.64
350 K | 226.77 | 198.22
351 K | 226.59 | 198.8
352 K | 226.96 | 199.38
353 K | 227.7 | 199.96

[Ni+2].c1cc[cH-]c1.c1cc[cH-]c1 [nickelocene]
[1]
Settings | molar enthalpy [kcal/mol]
DSC | 17.1
Static calorimetry | 17.2

Settings | Molar enthalpy of transition or fusion [kcal/mol] | Normal melting temperature [°C]
[2] | 4.54 | –
[3] | – | 177.7

molar heat capacity at constant pressure [J/K/mol], [4]
Settings | Crystal | Gas
293 K | 199.08 | 171.05
294 K | 199.83 | 171.62
295 K | 200.59 | 172.19
296 K | 201.35 | 172.76
297 K | 202.1 | 173.33
298 K | 203.05 | 173.9
298.15 K | 203.23 | –
299 K | 203.8 | 174.47
300 K | 204.37 | 175.04
301 K | 205.31 | 175.6
302 K | 206.07 | 176.17
303 K | 206.63 | 176.74
304 K | 207.2 | 177.31
305 K | 208.15 | 177.88
306 K | 208.9 | 178.45
307 K | 209.66 | 179.02
308 K | 210.6 | 179.58
309 K | 211.36 | 180.15
310 K | 212.11 | 180.72
311 K | 212.68 | 181.29
312 K | 213.43 | 181.85
313 K | 214 | 182.42
314 K | 214.76 | 182.99
315 K | 215.51 | 183.55
316 K | 216.08 | 184.12
317 K | 216.83 | 184.68
318 K | 217.59 | 185.25
319 K | 218.35 | 185.81
320 K | 218.91 | 186.37
321 K | 219.67 | 186.94
322 K | 220.23 | 187.5
323 K | 221.37 | 188.06
324 K | 222.31 | 188.62
325 K | 223.07 | 189.19
326 K | 223.82 | 189.75
327 K | 224.58 | 190.31
328 K | 225.14 | 190.87
329 K | 225.71 | 191.43
330 K | 226.09 | 191.98
331 K | 226.84 | 192.54
332 K | 227.6 | 193.1
333 K | 228.17 | 193.66
334 K | 228.92 | 194.21
335 K | 229.49 | 194.77
336 K | 230.24 | 195.32
337 K | 230.62 | 195.88
338 K | 231.19 | 196.43
339 K | 231.76 | 196.98
340 K | 232.51 | 197.54
341 K | 233.08 | 198.09
342 K | 233.83 | 198.64
343 K | 234.21 | 199.19
344 K | 234.97 | 199.74
345 K | 235.53 | 200.29
346 K | 236.1 | 200.84
347 K | 236.67 | 201.38
348 K | 237.23 | 201.93
349 K | 237.99 | 202.48
350 K | 238.56 | 203.02
351 K | 238.93 | 203.56
352 K | 239.69 | 204.11
353 K | 240.07 | 204.65

Reference: the NIST ThermoML archive (doi:10.1016/j.jct.2011.06.001)
